From PubChem BioAssay (NCI)
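Results reflect a 48-hour exposure of cells in 96-well plates to compound at five concentrations. TGI: concentration producing complete growth inhibition.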

Experiments:
Experiment in all cases: growth of human tumour cells (NCI), 48 h
[1] = test system: 786-0 renal
[2] = test system: CAKI-1 renal
[3] = test system: KM12 colon
[4] = test system: MCF7 breast
[5] = test system: MDA-MB-231 breast
[6] = test system: PC-3 prostate
[7] = test system: SK-MEL-28 melanoma
[8] = test system: SK-OV-3 ovarian
[9] = test system: SR leukemia
[10] = test system: UO-31 renal

Row | Compound | TGI [1] | TGI [2] | TGI [3] | TGI [4] | TGI [5] | TGI [6] | TGI [7] | TGI [8] | TGI [9] | TGI [10]
1 | CC(=O)NC1C(OCc2ccccc2)OC(CO)C(O)C1OC(C)C(=O)N[C@@H](C)C(=O)N[C@H](CCC(=O)NCCNCCNc1c2ccccc2nc2cccc([N+](=O)[O-])c12)C(N)=O (stereo not given in full) | 0.921 µM | 0.565 µM | 0.352 µM | 2.17 µM | 0.639 µM | 0.891 µM | 0.723 µM | 2.05 µM | > 71.4 µM | 0.607 µM
2 | CC(C)(CO[C@H]1C[C@H]2CC[C@@]1(C)C2(C)C)[N+](=O)[O-] | 27.9 µM | 60.3 µM | 32.4 µM | 49.9 µM | 34.6 µM | 54.4 µM | 34.9 µM | > 100 µM | 42.3 µM | 25.8 µM
3 | COC1CC(C)(NC(=O)C(F)(F)F)C2OC(c3ccccc3)OCC2O1 (stereo not given) | > 100 µM | > 100 µM | > 100 µM | > 100 µM | > 100 µM | > 100 µM | > 100 µM | > 100 µM | > 100 µM | > 100 µM
4 | CN1CCN(C(=O)c2cn(Cc3cncn3Cc3ccc4c(c3)OCO4)cc2-c2cccc3ccccc23)CC1 | > 86 µM | > 84.9 µM | > 58.3 µM | > 83.6 µM | 33.3 µM | > 86.3 µM | 63.6 µM | > 100 µM | 10.3 µM | > 100 µM
5 | Cc1cn(CCCCCCOC(=O)NC(CCCNC(N)=O)C(=O)O)c(=O)[nH]c1=O (stereo not given) | > 100 µM | > 100 µM | > 100 µM | > 100 µM | > 100 µM | > 100 µM | > 100 µM | > 100 µM | > 100 µM | > 100 µM
6 | CCN(CC)C(=S)SC(C(=O)Nc1nnc(-c2ccc(Cl)cc2)o1)c1ccccc1 (stereo not given) | 39 µM | 51.8 µM | 58.2 µM | > 100 µM | 77.7 µM | 28.3 µM | 33.5 µM | 31.4 µM | 38.3 µM | 52.1 µM
7 | C=C(C)C1CC(=O)C(C)=C(O)C1 (stereo not given) | > 100 µM | > 100 µM | > 100 µM | > 100 µM | > 100 µM | > 100 µM | > 100 µM | > 100 µM | > 100 µM | > 100 µM
8 | CCC1(O)CC(CCN(Cc2ccccc2)C(=O)OCc2ccccc2)C(OCc2ccccc2)C1O (stereo not given) | 39.3 µM | 65.7 µM | 27.3 µM | 28.8 µM | 87.3 µM | 23.2 µM | 36.4 µM | 34.6 µM | 34.9 µM | 33.7 µM
9 | N#Cc1nc(CCc2nc(C#N)c(N)o2)oc1N | > 10 µM | > 10 µM | > 10 µM | > 10 µM | > 10 µM | > 10 µM | > 10 µM | > 10 µM | > 10 µM | > 10 µM
10 | COc1cc(CCNC2=CC(=O)c3nc[nH]c3C2=O)ccc1O | > 100 µM | > 100 µM | 82.2 µM | 33.5 µM | > 100 µM | > 100 µM | 60.4 µM | 90.2 µM | 98.4 µM | > 100 µM
11 | Cc1ccccc1NC(=O)O/N=C(\Cl)C(C)C | 3.45 µM | 3.2 µM | 36.2 µM | 22.1 µM | 32.7 µM | 31 µM | 6.25 µM | 32.8 µM | > 100 µM | 31.3 µM
12 | C=C1CCC[C@@H](C)C(O)[C@@H]2OC(=O)C(=C)[C@@H]2C[C@@H](OC(C)=O)[C@@]2(C)CC[C@@H]1O2 (stereo not given in full) | 20.1 µM | 13.6 µM | 14.6 µM | 11.6 µM | 16.3 µM | 16.2 µM | 15.1 µM | 40.8 µM | 9.91 µM | 15.3 µM
13 | NC(=O)[C@H](Cc1ccc(O)cc1)Nc1c(O)c2c(c(O)c1Cl)C(=O)C=CC2=O | 4.62 µM | 5.18 µM | > 6.81 µM | 2.97 µM | 5.23 µM | 5.85 µM | 4.64 µM | > 10 µM | 5.26 µM | > 6.36 µM
14 | O=c1[nH]c(=O)n(COC(CO)CO)cc1-c1ccccc1 | > 100 µM | > 100 µM | > 100 µM | > 100 µM | > 100 µM | > 100 µM | > 100 µM | > 100 µM | > 100 µM | > 100 µM
15 | N#C/C(=C\c1ccc2[nH]ccc2c1)C(=O)NCCCCNC(=O)/C(C#N)=C/c1ccc2[nH]ccc2c1 | > 31.6 µM | > 31.6 µM | > 31.6 µM | > 10 µM | > 10 µM | > 10 µM | > 31.6 µM | > 31.6 µM | > 31.6 µM | > 31.6 µM
16 | CN(CCCCCl)P(=O)(OCc1ccc([N+](=O)[O-])o1)OCC1OC(n2ccc(N)nc2=O)C(O)C1O (stereo not given) | > 100 µM | > 100 µM | 34.6 µM | 17 µM | 67.3 µM | 43 µM | > 100 µM | 38.3 µM | 43.9 µM | > 100 µM
